Results as given in the NIST ThermoML archive (doi:10.1021/je060271a).

Conditions: 343.15 K, Liquid, Vibrating tube method

CCCCCCCC(=O)OCC(COC(=O)CCCCCCC)(COC(=O)CCCCCCC)COC(=O)CCCCCCC [pentaerythritol tetraoctanoate]
Conditions | mass density [kg/m3]
14038 kPa | 936.2
14078 kPa | 936.3
14099 kPa | 936.2
14121 kPa | 936.1
14146 kPa | 936.2
14168 kPa | 936.1
14194 kPa | 936.3
14216 kPa | 936.3
14238 kPa | 936.2
14260 kPa | 936.2
14286 kPa | 936.3
14308 kPa | 936.4
14330 kPa | 936.4
14357 kPa | 936.2
14379 kPa | 936.4
14401 kPa | 936.3
14428 kPa | 936.3
14450 kPa | 936.4
14473 kPa | 936.4
14500 kPa | 936.4
14523 kPa | 936.4
14546 kPa | 936.5
14570 kPa | 936.6
14594 kPa | 936.4
14621 kPa | 936.6
14644 kPa | 936.5
14667 kPa | 936.4
14694 kPa | 936.5
14718 kPa | 936.6
14741 kPa | 936.7
14765 kPa | 936.5
14793 kPa | 936.6
14817 kPa | 936.6
14845 kPa | 936.6
14870 kPa | 936.7
14894 kPa | 936.6
14918 kPa | 936.8
14947 kPa | 936.7
14971 kPa | 936.8
14995 kPa | 936.7
15024 kPa | 936.7
15049 kPa | 936.8
15078 kPa | 936.8
15103 kPa | 936.8
15127 kPa | 936.8
15152 kPa | 936.9
15183 kPa | 936.8
15208 kPa | 936.8
15233 kPa | 936.8
15263 kPa | 936.9
15288 kPa | 937
15314 kPa | 937
15344 kPa | 937
15370 kPa | 937
15396 kPa | 937.1
15426 kPa | 937.1
15452 kPa | 937
15478 kPa | 937
15508 kPa | 937
15536 kPa | 937
15563 kPa | 937.1
15589 kPa | 937.3
15616 kPa | 937.2
15647 kPa | 937.1
15673 kPa | 937.2
15705 kPa | 937.3
15732 kPa | 937.3
15759 kPa | 937.3
15791 kPa | 937.2
15818 kPa | 937.3
15846 kPa | 937.3
15879 kPa | 937.4
15908 kPa | 937.4
15936 kPa | 937.2
15964 kPa | 937.3
15992 kPa | 937.3
16026 kPa | 937.4
16054 kPa | 937.5
16083 kPa | 937.4
16116 kPa | 937.5
16144 kPa | 937.5
16173 kPa | 937.5
16207 kPa | 937.5
16236 kPa | 937.5
16265 kPa | 937.7
16300 kPa | 937.7
16329 kPa | 937.6
16358 kPa | 937.7
16387 kPa | 937.6
16423 kPa | 937.7
16453 kPa | 937.7
16483 kPa | 937.8
16518 kPa | 937.7
16548 kPa | 937.6
16578 kPa | 937.8
16609 kPa | 937.7
16645 kPa | 937.8
16676 kPa | 937.9
16707 kPa | 937.9
16738 kPa | 937.8
16775 kPa | 937.8
16806 kPa | 937.9
16843 kPa | 938.1
16904 kPa | 938
16942 kPa | 938
16974 kPa | 938.1
17005 kPa | 938
17037 kPa | 938.1
17075 kPa | 938.1
17107 kPa | 938.1
17146 kPa | 938.2
17354 kPa | 938.2
17387 kPa | 938.2
17421 kPa | 938.3
17460 kPa | 938.4
17494 kPa | 938.4
17528 kPa | 938.4
17569 kPa | 938.5
17604 kPa | 938.5
17638 kPa | 938.4
17678 kPa | 938.5
17713 kPa | 938.4
17748 kPa | 938.5
17790 kPa | 938.6
17825 kPa | 938.6
17861 kPa | 938.6
17904 kPa | 938.7
17940 kPa | 938.7
17977 kPa | 938.8
18022 kPa | 938.8
18054 kPa | 938.8
18084 kPa | 938.8
18119 kPa | 938.8
18149 kPa | 938.8
18179 kPa | 938.8
18210 kPa | 938.9
18247 kPa | 938.9
18279 kPa | 938.9
18312 kPa | 938.9
18349 kPa | 939
18372 kPa | 938.9
18393 kPa | 939.1
18411 kPa | 939.1
18430 kPa | 939
18448 kPa | 939
18465 kPa | 939.1
18482 kPa | 939.1
18503 kPa | 939.2
18521 kPa | 939.1
18542 kPa | 939.2
18560 kPa | 939.1
18577 kPa | 939.1
18598 kPa | 939.1
18616 kPa | 939.1
18635 kPa | 939.2
18657 kPa | 939.2
18673 kPa | 939.2
18695 kPa | 939.2
18712 kPa | 939.1
18730 kPa | 939.3
18752 kPa | 939.4
18771 kPa | 939.4
18789 kPa | 939.2
18812 kPa | 939.2
18830 kPa | 939.2
18848 kPa | 939.3
18870 kPa | 939.4
18888 kPa | 939.3
18907 kPa | 939.4
18926 kPa | 939.4
18948 kPa | 939.4
18967 kPa | 939.4
18986 kPa | 939.4
19008 kPa | 939.4
19027 kPa | 939.4
19049 kPa | 939.6
19068 kPa | 939.5
19087 kPa | 939.4
19106 kPa | 939.5
19129 kPa | 939.5
19148 kPa | 939.4
19167 kPa | 939.5
19190 kPa | 939.6
19210 kPa | 939.6
19225 kPa | 939.6
19248 kPa | 939.6
19271 kPa | 939.5
19291 kPa | 939.6
19310 kPa | 939.7
19334 kPa | 939.6
19353 kPa | 939.6
19373 kPa | 939.6
19396 kPa | 939.7
19416 kPa | 939.7
19436 kPa | 939.7
19456 kPa | 939.8
19480 kPa | 939.6
19499 kPa | 939.7
19519 kPa | 939.6
19543 kPa | 939.7
19563 kPa | 939.8
19587 kPa | 939.8
19608 kPa | 939.8
19627 kPa | 939.7
19647 kPa | 939.8
19671 kPa | 939.9
19691 kPa | 939.7
19712 kPa | 939.8
19736 kPa | 939.8
19756 kPa | 939.8
19780 kPa | 939.9
19801 kPa | 940.1
19821 kPa | 940.1
19841 kPa | 939.9
19866 kPa | 940
19887 kPa | 940
19907 kPa | 940
19932 kPa | 940
19952 kPa | 940.1
19977 kPa | 940
19999 kPa | 940
20019 kPa | 940
20040 kPa | 940.1
20065 kPa | 940
20108 kPa | 940.1
20155 kPa | 940.1
20180 kPa | 940.2
20201 kPa | 940.2
20223 kPa | 940.1
20245 kPa | 940.2
20271 kPa | 940.1
20295 kPa | 940.1
20316 kPa | 940.3
20338 kPa | 940.2
20364 kPa | 940.2
20386 kPa | 940.3
20408 kPa | 940.3
20434 kPa | 940.3
20527 kPa | 940.5
20550 kPa | 940.3
20577 kPa | 940.3
20596 kPa | 940.4
20622 kPa | 940.5
20645 kPa | 940.4
20667 kPa | 940.5
20690 kPa | 940.5
20708 kPa | 940.5
20731 kPa | 940.6
20753 kPa | 940.5
20790 kPa | 940.5
20813 kPa | 940.5
20836 kPa | 940.5
20864 kPa | 940.6
20887 kPa | 940.6
20910 kPa | 940.5
20938 kPa | 940.7
20961 kPa | 940.6
20984 kPa | 940.8
21008 kPa | 940.5
21036 kPa | 940.7
21059 kPa | 940.8
21087 kPa | 940.8
21110 kPa | 940.8
21134 kPa | 940.7
21162 kPa | 940.8
21185 kPa | 940.8
21215 kPa | 940.8
21239 kPa | 940.8
21262 kPa | 940.9
21286 kPa | 940.9
21315 kPa | 940.9
21339 kPa | 940.9
21363 kPa | 940.9
21392 kPa | 941
21416 kPa | 941
21440 kPa | 941
21469 kPa | 940.9
21494 kPa | 941.1
21518 kPa | 941.1
21548 kPa | 941
21573 kPa | 941.1
21597 kPa | 941.1
21622 kPa | 941.1
21652 kPa | 941.1
21677 kPa | 941.1
21702 kPa | 941.2
21732 kPa | 941.3
21757 kPa | 941.3
21782 kPa | 941.2
21812 kPa | 941.2
21837 kPa | 941.1
21863 kPa | 941.2
21890 kPa | 941.1
21920 kPa | 941.2
21946 kPa | 941.3
21977 kPa | 941.3
